Assay results taken from patent US8501732B2, “Aminomethyl quinolone compounds” (Hoffmann-La Roche Inc., priority 2011, dated 2013).
Counter-ions that a name gives are not always drawn. Like-named read-outs stand apart in the source and are kept apart here.

Tests used:
[1] = test system: phospho(Ser63)-c-jun in HK-2 cells; test: Cell-Based Assay for JNK Inhibitors (in-cell ELISA, phospho(Ser63)-c-jun after TNFα); details: HK-2 cells (human proximal tubule cells), 60 minutes compound, then 10 ng/mL TNFα for 30 minutes
Procedure: Cell-Based Assay for JNK Inhibitors
The cell-based assay employed the in-cell ELISA method to determine the ability of compounds to prevent the generation of phospho(Ser63)-c-jun in HK-2 cells (human proximal tubule cells) in response to stimulation with tumor necrosis factor α (TNFα). In brief, for quantification of phospho(Ser63)-c-jun, the cells (in 96-well format) were fixed and permeablized then incubated sequentially with a rabbit anti-phospho-c-jun First Antibody specific for the presence of the phospho-Ser63 epitope and a donkey anti-rabbit IgG Second Antibody linked to horseradish peroxidase (HRP) for colorimetric quantitation of binding. […] Blank wells received no TNFα stimulation or compound. Additional Control wells received TNFα stimulation, but no compound.
Stock cultures of HK-2 cells (ATCC, Manassas, Va.) were grown under a 5% CO2/[…] atmosphere at 37 degrees C. in Keratinocyte-SFM medium (KSFM, Invitrogen, Grand Island, N.Y.) containing 5 μg/L epidermal growth factor and 5 mg/L bovine pituitary extract (both supplied with the medium), additionally supplemented with 10% (v/v) fetal calf serum (FCS; Invitrogen, Grand Island, N.Y.) and 1% (v/v) antibiotic-antimycotic (ABAM: Sigma, St. Louis, Mo.). For assays, cells were seeded in collagen coated 96-well polystyrene plates (BD Biosciences, Franklin Lakes, N.J.) at a density of 40,000 cells/well and cultured for 24 h in the same medium (100 μL/well) followed by a further 16-24 h in 100 μL of similar medium, but without FCS. […] Plates were then allowed to stand at room temperature for 20 minutes before being washed with 200 μL/well of PBS. (Further steps were performed immediately or the plates were stored at 4 degrees C. and the assay completed the next day.) To each well was added 100 μL 1% (v/v) TritonX-100 (Sigma, St. Louis, Mo.) in PBS followed by 20 minutes standing at room temperature, washing with 200 μL/well PBS, the addition of 100 μL/well of Quenching buffer (1% (v/v) hydrogen peroxide (Sigma, St. Louis, Mo.) and 0.1% (w/v) sodium azide (Fisher Scientific, Fair Lawn, N.J.)) in PBS and a further 20 minutes at room temperature. Plates were then washed twice with 200 μL/well of 0.1% (v/v) Tween-20 (Teknova, Hollister, Calif.) in PBS before addition of 200 μL/well of 2% BSA/0.1% Tween-20 in PBS and a further 1 hour at room temperature. […] After a further one hour, rabbit anti-phospho-c-jun-Ser63 is added directly to the solution in the Blank wells resulting in 1:250 dilution of this antibody. Plates were then placed on a slowly rotating platform at 4 degrees C. overnight. Wells were then washed thrice with 200 μL/well PBS/0.1% Tween-20. After addition of the third wash, the plates were placed on a slowly rotating platform for 15 minutes at room temperature. The final PBS/Tween20 wash was then replaced with 100 μL/well of donkey anti-rabbit HRP-labeled Second Antibody (Jackson ImmunoResearch Laboratory, West Grove, Pa.) diluted 1:10,000 in Antibody Dilution Buffer and the plates placed on a slowly rotating platform for 1 hour at room temperature. Wells were then washed four times with 200 μL/well PBS/0.1% Tween-20, including slow rotation for 30 minutes for the third wash and 10 minutes for the final wash. The wells were then washed once with 200 μL PBS without Tween-20. […] Absorbance was determined at a 450 nm wavelength using a spectrophotometer (Molecular Devices SpectraMax 250).

JNK1 = JNK1 (Homo sapiens (Human), UniProt P45983); test: In Vitro JNK1 Assay (TR-FRET, phosphorylation of GST-c-Jun); format: biochemical
JNK1, sequence (P45983 whole entry, the tested form may be a part): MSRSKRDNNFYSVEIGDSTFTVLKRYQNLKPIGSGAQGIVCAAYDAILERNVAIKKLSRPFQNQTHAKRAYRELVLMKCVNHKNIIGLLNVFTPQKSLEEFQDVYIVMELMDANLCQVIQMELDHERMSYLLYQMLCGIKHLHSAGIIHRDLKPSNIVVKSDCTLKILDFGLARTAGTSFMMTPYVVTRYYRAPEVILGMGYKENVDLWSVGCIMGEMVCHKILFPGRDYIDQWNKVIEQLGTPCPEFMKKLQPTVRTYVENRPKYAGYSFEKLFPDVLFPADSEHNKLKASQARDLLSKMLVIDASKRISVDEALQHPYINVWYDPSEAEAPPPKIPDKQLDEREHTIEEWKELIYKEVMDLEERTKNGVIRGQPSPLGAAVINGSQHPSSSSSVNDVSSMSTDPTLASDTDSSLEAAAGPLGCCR
Procedure: Phosphorylation of GST-c-Jun protein (amino acid residues 1-79) was measured as JNK1 activity. […] The reaction buffer contained 50 mM HEPES, pH […], 1 mM DTT, 0.1 mM Na3VO4 and 0.2 mg/mL BSA. After 30 min. incubation at room temperature, the reaction was terminated by adding buffer containing 8 mM EDTA and a polyclonal anti-phospho-c-Jun antibody (Cell Signaling #9261L), followed by an additional incubation of 30 min. at room temperature. […] Time-resolved Fluorescence Resonance Energy Transfer (TR-FRET) signals were measured 1 hr. later on the EnVision reader (Perkin Elmer). Compound potency was assessed at 10 serially diluted concentrations. Percentage of inhibition at each concentration was determined to generate an IC50 value for each compound.

[2] = 0.2 nM active JNK1 kinase, 26.7 nM GST-c-Jun, 2 μM ATP, 30 min at room temperature

| EC50 [1] [nM] | IC50 (JNK1; [2]) [nM] | SMILES | IC50 (JNK1) [nM] |
| --- | --- | --- | --- |
| 31000 | – | O=C(NCc1cn(-c2ccccc2)c2cc(Cl)ccc2c1=O)c1ccc(N2C[C@@H]3C[C@H]2CN3)nc1 (stereo in doubt) [Example I-89, trifluoroacetate] | – |
| 500 | 1 | O=C(NCc1c(-c2ncco2)n(-c2ccccc2)c2cc(Cl)ccc2c1=O)c1ccn(Cc2ccccc2)c(=O)c1 [Example I-1, 1-Benzyl-2-oxo-1,2-dihydro-pyridine-4-carboxylic acid (7-chloro-2-oxazol-2-yl-4-oxo-1-phenyl-1,4-dihydro-quinolin-3-ylmethyl)-amide] | – |
| 2700 | 7 | O=C(NCc1c(-c2ncco2)n(-c2ccccc2)c2cc(Cl)ccc2c1=O)c1ccnc(N2CCOCC2)c1 [Example I-2, N-(7-Chloro-2-oxazol-2-yl-4-oxo-1-phenyl-1,4-dihydro-quinolin-3-ylmethyl)-2-morpholin-4-yl-isonicotinamide] | – |
| 3100 | 9 | O=C(NCc1c(-c2ncco2)n(-c2ccccc2)c2cc(Cl)ccc2c1=O)c1ccc(N2CCOCC2)nc1 [Example I-3, N-(7-Chloro-2-oxazol-2-yl-4-oxo-1-phenyl-1,4-dihydro-quinolin-3-ylmethyl)-6-morpholin-4-yl-nicotinamide] | – |
| 3000 | 14 | NC(=O)c1ccc(C(=O)NCc2c(-c3ncco3)n(-c3ccccc3)c3cc(Cl)ccc3c2=O)cc1 [Example I-4, N-(7-Chloro-2-oxazol-2-yl-4-oxo-1-phenyl-1,4-dihydro-quinolin-3-ylmethyl)-terephthalamide] | – |
| 4500 | 14 | O=C(NCc1c(-c2ncco2)n(-c2ccccc2)c2cc(Cl)ccc2c1=O)c1ccc(N2CCCCC2)nc1 [Example I-7, 3,4,5,6-Tetrahydro-2H-[1,2′]bipyridinyl-5′-carboxylic acid (7-chloro-2-oxazol-2-yl-4-oxo-1-phenyl-1,4-dihydro-quinolin-3-ylmethyl)-amide] | – |
| 4200 | 25 | O=C(NCc1c(-c2ncco2)n(-c2ccccc2)c2cc(Cl)ccc2c1=O)c1ccc2c(c1)OCO2 [Example I-8, Benzo[1,3]dioxole-5-carboxylic acid (7-chloro-2-oxazol-2-yl-4-oxo-1-phenyl-1,4-dihydro-quinolin-3-ylmethyl)-amide] | – |
| 1200 | 4 | O=C(NCc1c(-c2ncco2)n(-c2ccccc2)c2ncccc2c1=O)c1ccn(Cc2ccccc2)c(=O)c1 [Example I-9, 1-Benzyl-2-oxo-1,2-dihydro-pyridine-4-carboxylic acid (2-oxazol-2-yl-4-oxo-1-phenyl-1,4-dihydro-[1,8]naphthyridin-3-ylmethyl)-amide] | – |
| 5200 | 29 | O=C(NCc1c(-c2ncco2)n(-c2ccccc2)c2ncccc2c1=O)c1ccc(N2CCOCC2)nc1 [Example I-10, 6-Morpholin-4-yl-N-(2-oxazol-2-yl-4-oxo-1-phenyl-1,4-dihydro-[1,8]naphthyridin-3-ylmethyl)-nicotinamide] | – |
| 15000 | 47 | Cn1cc(C(=O)NCc2c(-c3ncco3)n(-c3ccccc3)c3ncccc3c2=O)cn1 [Example I-11, 1-Methyl-1H-pyrazole-4-carboxylic acid (2-oxazol-2-yl-4-oxo-1-phenyl-1,4-dihydro-[1,8]naphthyridin-3-ylmethyl)-amide] | – |
| 2500 | 7 | O=C(NCc1c(-c2ncco2)n(-c2ccccc2)c2ncccc2c1=O)c1ccc(N2CCC(CO)CC2)nc1 [Example I-12, 4-Hydroxymethyl-3,4,5,6-tetrahydro-2H-[1,2′]bipyridinyl-5′-carboxylic acid (2-oxazol-2-yl-4-oxo-1-phenyl-1,4-dihydro-[1,8]naphthyridin-3-ylmethyl)-amide] | – |
| 12000 | – | O=C(NCc1cn(-c2ccccc2F)c2cc(F)ccc2c1=O)c1cnn(-c2ccccc2)c1 [Example I-103, 1-Phenyl-1H-pyrazole-4-carboxylic acid [7-fluoro-1-(2-fluoro-phenyl)-4-oxo-1,4-dihydro-quinolin-3-ylmethyl]-amide] | – |
| 2200 | – | COC(=O)c1c(CNC(=O)c2cnc(N3CCOCC3)s2)c(=O)c2ccc(Cl)cc2n1-c1ccccc1 [Example I-116, Chloro-3-{[(2-morpholin-4-yl-thiazole-5-carbonyl)-amino]-methyl}-4-oxo-1-phenyl-1,4-dihydro-quinoline-2-carboxylic acid methyl ester] | – |
| – | 850 | O=C(NCc1cn(-c2ccccc2)c2cc(Cl)ccc2c1=O)N1CCOCC1 [Example I-200, Morpholine-4-carboxylic acid (7-chloro-4-oxo-1-phenyl-1,4-dihydro-quinolin-3-ylmethyl)-amide] | – |
| – | 550 | O=C(NCc1cn(-c2ccccc2)c2cc(Cl)ccc2c1=O)Nc1ccccc1 [Example I-201, 1-(7-Chloro-4-oxo-1-phenyl-1,4-dihydro-quinolin-3-ylmethyl)-3-phenyl-urea] | – |
| – | 630 | CN(C)c1ccc(NC(=O)NCc2cn(-c3ccccc3)c3cc(Cl)ccc3c2=O)cc1 [Example I-202, 1-(7-Chloro-4-oxo-1-phenyl-1,4-dihydro-quinolin-3-ylmethyl)-3-(4-dimethylamino-phenyl)-urea] | – |
| – | 650 | COc1ccc(NC(=O)NCc2cn(-c3ccccc3)c3cc(Cl)ccc3c2=O)cc1 [Example I-203, 1-(7-Chloro-4-oxo-1-phenyl-1,4-dihydro-quinolin-3-ylmethyl)-3-(4-methoxy-phenyl)-urea] | – |
| – | 1800 | O=C(NCc1cn(-c2ccccc2)c2cc(Cl)ccc2c1=O)Nc1ccc(OC(F)(F)F)cc1 [Example I-205, 1-(4-trifluoromethoxy-phenyl)-3-(7-chloro-4-oxo-1-phenyl-1,4-dihydro-quinolin-3-yl-methyl)-urea] | – |
| – | 2700 | COC(=O)c1ccc(NC(=O)NCc2cn(-c3ccccc3)c3cc(Cl)ccc3c2=O)cc1 [Example I-206, 4-[3-(7-Chloro-4-oxo-1-phenyl-1,4-dihydro-quinolin-3-ylmethyl)-ureido]-benzoic acid methyl ester] | – |
| – | 110 | COC(=O)c1c(CNc2nccc3ccccc23)c(=O)c2ccc(Cl)cc2n1-c1ccccc1 [Example I-207, 7-Chloro-3-(isoquinolin-1-ylaminomethyl)-4-oxo-1-phenyl-1,4-dihydro-quinoline-2-carboxylic acid methyl ester] | – |
| – | 150 | COC(=O)c1c(CNC(=O)N2CCOCC2)c(=O)c2ccc(Cl)cc2n1-c1ccccc1 [Example I-209, 7-Chloro-3-{[(morpholine-4-carbonyl)-amino]-methyl}-4-oxo-1-phenyl-1,4-dihydro-quinoline-2-carboxylic acid methyl ester] | – |
| – | – | COC(=O)c1c(CNC(=O)Oc2ccccc2)c(=O)c2ccc(Cl)cc2n1-c1ccccc1 [Example I-210, 7-Chloro-4-oxo-3-(phenoxycarbonylamino-methyl)-1-phenyl-1,4-dihydro-quinoline-2-carboxylic acid methyl ester] | 1100 |
| – | 920 | COC(=O)c1c(CN(C)C(=O)c2ccc(S(C)(=O)=O)cc2)c(=O)c2ccc(Cl)cc2n1-c1ccccc1 [Example I-211, 7-Chloro-3-{[(4-methanesulfonyl-benzoyl)-methyl-amino]-methyl}-4-oxo-1-phenyl-1,4-dihydro-quinoline-2-carboxylic acid methyl ester] | – |
